Experimental data as given in ChEMBL document CHEMBL1134870, “Design and synthesis of novel inhibitors of gelatinase B” (Bioorg Med Chem Lett, 2002).

Columns and labels:
[1] = target: Matrix metalloproteinase-9 (Mus musculus, UniProt P41245); assay: Inhibitory concentration was determined against murine gelatinase B
[2] = target: Matrix metalloproteinase-9 (Mus musculus) (UniProt P41245); assay: Inhibitory activity against murine gelatinase B at 5 mM was determined
Matrix metalloproteinase-9 (Mus musculus), sequence (P41245 whole entry): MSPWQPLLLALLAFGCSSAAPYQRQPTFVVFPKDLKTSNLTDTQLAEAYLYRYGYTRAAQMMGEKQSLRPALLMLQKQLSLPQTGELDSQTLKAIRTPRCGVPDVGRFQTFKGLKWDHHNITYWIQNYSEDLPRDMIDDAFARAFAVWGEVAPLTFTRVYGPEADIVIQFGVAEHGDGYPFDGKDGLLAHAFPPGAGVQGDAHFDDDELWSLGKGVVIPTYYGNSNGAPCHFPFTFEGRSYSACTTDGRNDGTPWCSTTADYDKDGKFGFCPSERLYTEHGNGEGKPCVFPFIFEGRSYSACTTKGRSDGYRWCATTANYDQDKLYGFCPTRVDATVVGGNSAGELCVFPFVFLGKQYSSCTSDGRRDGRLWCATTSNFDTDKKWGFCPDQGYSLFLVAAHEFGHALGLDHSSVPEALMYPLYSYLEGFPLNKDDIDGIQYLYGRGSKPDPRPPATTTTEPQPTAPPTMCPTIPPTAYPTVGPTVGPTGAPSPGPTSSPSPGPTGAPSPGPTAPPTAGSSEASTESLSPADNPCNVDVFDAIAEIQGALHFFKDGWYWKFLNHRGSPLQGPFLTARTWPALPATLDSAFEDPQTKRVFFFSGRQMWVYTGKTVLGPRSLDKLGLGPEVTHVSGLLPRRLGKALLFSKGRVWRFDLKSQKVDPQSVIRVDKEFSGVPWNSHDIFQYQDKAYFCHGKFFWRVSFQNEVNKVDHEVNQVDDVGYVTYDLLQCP

Matrix metalloproteinase-9, sequence (P41245 whole entry): as above

| Structure (SMILES) | IC50 [1] [µM] | inhibition [2] [%] |
| --- | --- | --- |
| NCc1nc2ccc(NCc3ccccc3)cc2[nH]1 | 195 |  |
| NCc1nc2cc(NC(=O)/C=C/c3c(F)cccc3F)ccc2[nH]1 | 75 |  |
| NCCN |  | < 5 |
| CC(=O)NCc1nc2ccc(NCc3ccccc3OCc3ccccc3)cc2[nH]1 | > 100 |  |
| CC(=O)Nc1nc(C)cs1 |  | < 5 |
| OCc1nc2ccccc2[nH]1 |  | 26 |
| NCc1nc2ccc(NCc3ccccc3OCc3ccccc3)cc2[nH]1 | 13 |  |
| O=C(O)c1ccccc1 |  | < 5 |
| OCc1nc2cc(NCc3ccccc3OCc3ccccc3)ccc2[nH]1 | > 100 |  |
| CC(=O)NO |  | < 5 |
| Oc1ccccn1 |  | < 5 |
| NCc1nc2ccc(NCc3ccccc3Sc3ccccc3)cc2[nH]1 | 56 |  |
| NCc1nc2cc(N)ccc2[nH]1 | > 500 |  |
| NCc1ccccn1 |  | 75 |
| NCc1nc2ccc(NC(=O)c3ccccc3OCc3ccccc3)cc2[nH]1 | 48 |  |
| Cc1nc2cc(NCc3ccccc3OCc3ccccc3)ccc2[nH]1 | > 300 |  |
| CC(=O)C1CCCC1=O (centres undefined) |  | 76 |
| CC(=O)N(Cc1ccccc1OCc1ccccc1)c1ccc2nc(CN)[nH]c2c1 | 83 |  |
| Nc1ccccc1N |  | 10 |
| NCc1nc2ccc(NC(=O)c3ccc(C(=O)c4ccccc4)cc3)cc2[nH]1 | 46 |  |
| NCc1nc2ccccc2[nH]1 |  | 65 |
| NCc1nc2cc(NC(=O)/C=C/c3cccnc3)ccc2[nH]1 | 85 |  |
| CCNCCN |  | < 5 |
| NCCNCCN |  | < 5 |
| OCc1nc2ccccc2s1 |  | 85 |
| NCc1nc2ccc(NCC3CC=CCC3)cc2[nH]1 (centres undefined) | 92 |  |
| NCc1nc2ccc(NCc3ccc(OCc4ccccc4)cc3)cc2[nH]1 | 51 |  |
| NCCc1ccccn1 |  | < 5 |
| NCc1cc2cc(NCc3ccccc3OCc3ccccc3)ccc2[nH]1 | 72 |  |
